According to patent publication US20100111888A1, “Organic Compounds and Compositions Having the Ability to Modulate Fragrance Compositions” (GIVAUDAN SA, priority 2007, published 2010):
pIC50: −log10 of the molar value.

target: T1, CYP2A13 (Homo sapiens, UniProt Q16696); experiment: Evaluation of test compounds as inhibitors of CYP2A13 (coumarin to Umbelliferone, fluorescence); type: biochemical; settings: substrate coumarin 0.006 mM; microsomes with 7 pmoles CYP2A13; 60 min at 37° C.; read-out: CYP2A13 inhibitor activity IC50
T1 construct: made in house; host or cells: Sf9 insect cells, recombinant baculovirus
T1 sequence (Q16696 1-494): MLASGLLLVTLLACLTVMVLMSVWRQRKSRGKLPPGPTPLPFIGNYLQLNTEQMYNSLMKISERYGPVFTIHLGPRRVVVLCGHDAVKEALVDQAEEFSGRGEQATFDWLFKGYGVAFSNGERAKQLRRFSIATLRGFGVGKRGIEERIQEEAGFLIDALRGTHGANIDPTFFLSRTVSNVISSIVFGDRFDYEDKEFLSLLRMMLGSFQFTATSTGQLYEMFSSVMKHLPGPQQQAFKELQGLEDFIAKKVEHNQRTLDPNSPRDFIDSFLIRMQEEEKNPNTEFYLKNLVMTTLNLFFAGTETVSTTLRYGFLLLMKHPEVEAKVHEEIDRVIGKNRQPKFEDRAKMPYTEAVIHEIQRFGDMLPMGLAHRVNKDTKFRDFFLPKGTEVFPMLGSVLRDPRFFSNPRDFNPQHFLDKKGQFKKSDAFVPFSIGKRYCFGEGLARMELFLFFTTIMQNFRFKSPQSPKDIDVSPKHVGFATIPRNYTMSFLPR
Text: P450 reductase is commercially available (BD Biosciences Gentest, USA).
Microsomes were used which contained 7 pmoles CYP2A13.

Q: With `CCCCC/C(=C\c1ccc(C)cc1)C(C)=O` [Compound ID 30, (E)-3-(4-methylbenzylidene)octan-2-one] as the molecule, how does the pIC50 read?
A: Its pIC50 is 6.40.

Q: How did the pIC50 turn out when `CCCCC/C(=C\c1cccc(C)c1)C(C)=O` [Compound ID 29, (E)-3-(3-methylbenzylidene)octan-2-one] was run?
A: The pIC50 was 6.40.

Q: With `CCCCC/C(=C\C1CC1)C(=O)OC` [Compound ID 46, (E)-methyl 2-(cyclopropylmethylene)heptanoate] as the molecule, how does the pIC50 read?
A: The pIC50 was 5.64.

Q: With `CCCCCC/C(=C\c1ccccc1)C(C)=O` [Compound ID 6, (E)-3-benzylidenenonan-2-one] as the molecule, how does the pIC50 read?
A: Its pIC50 is 5.52.

Q: With `CCCCC/C(C(C)=O)=C(/C)c1ccccc1` [Compound ID 51, (E)-3-(1-phenylethylidene)octan-2-one] as the molecule, how does the pIC50 read?
A: Its pIC50 is 5.60.

Q: How did the pIC50 turn out when `CCCCC/C(=C\C(C)(C)C)C(C)=O` [Compound ID 55, (E)-3-(2,2-dimethylpropylidene)octan-2-one] was run?
A: The pIC50 was 6.52.

Q: With `CCCCC/C(=C\c1c(F)cccc1F)C(C)=O` [Compound ID 23, (E)-3-(2,6-difluorobenzylidene)octan-2-one] as the molecule, how does the pIC50 read?
A: The pIC50 was 6.70.

Q: `CCCCCC(CC1CC1)C(C)=O` (stereo not shown) [Compound ID 50, 3-(cyclopropylmethyl)octan-2-one] was tested. Which pIC50 did it give?
A: The pIC50 was 5.89.

Q: How did the pIC50 turn out when `CCCCC/C(=C\c1ccccc1)C(=O)CC` [Compound ID 58, (E)-4-benzylidenenonan-3-one] was run?
A: Its pIC50 is 6.30.

Q: With `CCCC/C(=C\c1ccccc1)C(C)=O` [Compound ID 33, (E)-3-benzylideneheptan-2-one] as the molecule, how does the pIC50 read?
A: Its pIC50 is 6.22.

Q: With `CCCCC/C(=C\c1cccs1)C(C)=O` [Compound ID 9, (E)-3-(thiophen-2-ylmethylene)octan-2-one] as the molecule, how does the pIC50 read?
A: Its pIC50 is 5.28.

Q: `CCCCC/C(=C\c1ccc(C#N)cc1)C(C)=O` [Compound ID 7, (E)-4-(2-acetylhept-1-enyl)benzonitrile] was tested. Which pIC50 did it give?
A: The pIC50 was 5.70.

Q: `CCCCC/C(=C\c1ccccc1)C(=O)OC` [Compound ID 47, (E)-methyl 2-benzylideneheptanoate] was tested. Which pIC50 did it give?
A: The pIC50 was 6.30.

Q: How did the pIC50 turn out when `CCCCC/C(=C\c1ccc2c(c1)OCO2)C(C)=O` [Compound ID 39, (E)-3-(benzo[d][1,3]dioxol-5-ylmethylene)octan-2-one] was run?
A: Its pIC50 is 5.70.

Q: With `CCCCCC1(C(=O)OC)CCCC1` [Compound ID 14, methyl 1-pentylcyclopentanecarboxylate] as the molecule, how does the pIC50 read?
A: The pIC50 was 5.68.

Q: With `CCCCC/C(=C\c1ccc(F)cc1)C(C)=O` [Compound ID 22, (E)-3-(4-fluorobenzylidene)octan-2-one] as the molecule, how does the pIC50 read?
A: Its pIC50 is 6.40.

Q: With `CCCCC/C(=C\c1ccc(F)cc1F)C(C)=O` [Compound ID 24, (E)-3-(2,4-difluorobenzylidene)octan-2-one] as the molecule, how does the pIC50 read?
A: Its pIC50 is 6.70.

Q: How did the pIC50 turn out when `CCCCC/C(=C\C(C)C)C(C)=O` [Compound ID 56, (E)-3-(2-methylpropylidene)octan-2-one] was run?
A: Its pIC50 is 6.70.

Q: With `CCCCCC(Cc1ccccc1)C(=O)OC` (stereo not shown) [Compound ID 49, methyl 2-benzylheptanoate] as the molecule, how does the pIC50 read?
A: The pIC50 was 5.36.

Q: With `CCCCC/C(=C\c1ccccc1C(F)(F)F)C(C)=O` [Compound ID 31, (E)-3-(2-(trifluoromethyl)benzylidene)octan-2-one] as the molecule, how does the pIC50 read?
A: Its pIC50 is 6.70.

Q: With `CCCCCC(CC1CC1)C(=O)OC` (stereo not shown) [Compound ID 48, methyl 2-(cyclopropylmethyl)heptanoate] as the molecule, how does the pIC50 read?
A: Its pIC50 is 5.06.

Q: `CCCCC/C(=C\C(OC)OC)C(C)=O` [Compound ID 11, (E)-3-(2,2-dimethoxyethylidene)octan-2-one] was tested. Which pIC50 did it give?
A: The pIC50 was 5.80.

Q: How did the pIC50 turn out when `CCCCC/C(=C\C1CC1)C(=O)CC` [Compound ID 57, (E)-4-(cyclopropylmethylene)nonan-3-one] was run?
A: Its pIC50 is 6.52.

Q: `CCCCC/C(=C\c1ccc2ccccc2c1)C(C)=O` [Compound ID 8, (E)-3-(naphthalen-2-ylmethylene)octan-2-one] was tested. Which pIC50 did it give?
A: Its pIC50 is 4.79.

Q: With `CCCCC/C(=C\c1c(F)c(F)c(F)c(F)c1F)C(C)=O` [Compound ID 27, (E)-3-(perfluorobenzylidene)octan-2-one] as the molecule, how does the pIC50 read?
A: The pIC50 was 6.15.

Q: How did the pIC50 turn out when `CCCCC/C(=C\C1CCC1)C(C)=O` [Compound ID 19, (E)-3-(cyclobutylmethylene)octan-2-one] was run?
A: Its pIC50 is 6.52.

Q: How did the pIC50 turn out when `CCCCC/C(=C\C(C)(C)C)C(=O)OC` [Compound ID 53, (E)-methyl 2-(2,2-dimethylpropylidene)heptanoate] was run?
A: Its pIC50 is 5.72.

Q: `CCCCC/C(=C\c1ccccn1)C(C)=O` [Compound ID 43, (E)-3-(pyridin-2-ylmethylene)octan-2-one] was tested. Which pIC50 did it give?
A: Its pIC50 is 7.00.

Q: With `CCCCC/C(=C\c1cc(F)cc(F)c1)C(C)=O` [Compound ID 25, (E)-3-(3,5-difluorobenzylidene)octan-2-one] as the molecule, how does the pIC50 read?
A: Its pIC50 is 6.22.

Q: How did the pIC50 turn out when `CCCCC/C(=C\c1ccncc1)C(C)=O` [Compound ID 45, (E)-3-(pyridin-4-ylmethylene)octan-2-one] was run?
A: The pIC50 was 6.30.

Q: With `CCC/C(=C\c1ccc(OC)cc1)C(C)=O` [Compound ID 38, (E)-3-(4-methoxybenzylidene)hexan-2-one] as the molecule, how does the pIC50 read?
A: Its pIC50 is 5.70.

Q: How did the pIC50 turn out when `CCCCC/C(=C/c1ccc(C(=O)OC)cc1)C(C)=O` [Compound ID 41, (Z)-methyl 4-(2-acetylhept-1-enyl)benzoate] was run?
A: Its pIC50 is 4.33.

Q: How did the pIC50 turn out when `CCCCC/C(=C\c1ccccc1C)C(C)=O` [Compound ID 28, (E)-3-(2-methylbenzylidene)octan-2-one] was run?
A: The pIC50 was 6.52.

Q: `CCCCC/C(=C\c1cccnc1)C(C)=O` [Compound ID 44, (E)-3-(pyridin-3-ylmethylene)octan-2-one] was tested. Which pIC50 did it give?
A: Its pIC50 is 7.00.

Q: With `CCCCC/C(=C\C1CCCC1)C(C)=O` [Compound ID 18, (E)-3-(cyclopentylmethylene)octan-2-one] as the molecule, how does the pIC50 read?
A: Its pIC50 is 6.30.

Q: With `CCCCC/C(=C\c1ccccc1F)C(C)=O` [Compound ID 20, (E)-3-(2-fluorobenzylidene)octan-2-one] as the molecule, how does the pIC50 read?
A: The pIC50 was 6.52.

Q: How did the pIC50 turn out when `CCCCC/C(=C\c1cccc(OC)c1)C(C)=O` [Compound ID 35, (E)-3-(3-methoxybenzylidene)octan-2-one] was run?
A: The pIC50 was 6.30.

Q: `CCCCC/C(=C\C(C)(C)C)C(=O)O` [Compound ID 54, (E)-2-(2,2-dimethylpropylidene)heptanoic acid] was tested. Which pIC50 did it give?
A: The pIC50 was 5.59.

Q: With `CCCCC/C(=C\C1CCCCC1)C(C)=O` [Compound ID 16, (E)-3-(cyclohexylmethylene)octan-2-one] as the molecule, how does the pIC50 read?
A: The pIC50 was 6.30.

Q: `CCCCC/C(=C\c1cccc(F)c1)C(C)=O` [Compound ID 21, (E)-3-(3-fluorobenzylidene)octan-2-one] was tested. Which pIC50 did it give?
A: The pIC50 was 6.52.

Q: How did the pIC50 turn out when `CCCCC/C(=C\c1ccc(OC)cc1)C(C)=O` [Compound ID 36, (E)-3-(4-methoxybenzylidene)octan-2-one] was run?
A: The pIC50 was 6.40.

Q: `CCCCC/C(=C/c1cc(F)cc(F)c1)C(C)=O` [Compound ID 26, (Z)-3-(3,5-difluorobenzylidene)octan-2-one] was tested. Which pIC50 did it give?
A: Its pIC50 is 4.84.

Q: With `CCCCC/C(=C\CC1(C)OCCO1)C(C)=O` [Compound ID 12, (E)-3-(2-(2-methyl-1,3-dioxolan-2-yl)ethylidene)octan-2-one] as the molecule, how does the pIC50 read?
A: Its pIC50 is 5.49.

Q: `CCCCC/C(=C\c1ccc(C(=O)OC)cc1)C(C)=O` [Compound ID 40, (E)-methyl 4-(2-acetylhept-1-enyl)benzoate] was tested. Which pIC50 did it give?
A: Its pIC50 is 5.96.

Q: How did the pIC50 turn out when `CCCC/C(=C\C1CCOC1)C(C)=O` (stereo not shown) [Compound ID 10, (E)-3-((tetrahydrofuran-3-yl)methylene)heptan-2-one] was run?
A: The pIC50 was 4.81.

Q: How did the pIC50 turn out when `CCCCCC1(C(C)=O)CCCC1` [Compound ID 15, 1-(1-pentylcyclopentyl)ethanone] was run?
A: Its pIC50 is 6.15.

Q: How did the pIC50 turn out when `CCCC/C(=C\c1ccc(OC)cc1)C(C)=O` [Compound ID 37, (E)-3-(4-methoxybenzylidene)heptan-2-one] was run?
A: Its pIC50 is 5.85.

Q: How did the pIC50 turn out when `CCCCCC/C(=C\C1CC1)C(=O)/C=C/C1CC1` [Compound ID 13, (1E,4E)-1-cyclopropyl-4-(cyclopropylmethylene)dec-1-en-3-one] was run?
A: The pIC50 was 5.01.

Q: With `CCCCC/C(=C\c1ccccc1OC)C(C)=O` [Compound ID 34, (E)-3-(2-methoxybenzylidene)octan-2-one] as the molecule, how does the pIC50 read?
A: Its pIC50 is 6.40.

Q: How did the pIC50 turn out when `CCCCC/C(=C\C1CC=CCC1)C(C)=O` (stereo not shown) [Compound ID 17, (E)-3-(cyclohex-3-enylmethylene)octan-2-one] was run?
A: The pIC50 was 6.22.

Q: `CCCCC/C(=C\C1CC1)C(=O)c1ccccc1` [Compound ID 52, (E)-2-(cyclopropylmethylene)-1-phenylheptan-1-one] was tested. Which pIC50 did it give?
A: Its pIC50 is 5.18.

Q: `CCC/C(=C\c1ccccc1)C(C)=O` [Compound ID 32, (E)-3-benzylidenehexan-2-one] was tested. Which pIC50 did it give?
A: Its pIC50 is 6.00.
